In patent US12371454B2, “Cyclic peptide compound having Kras inhibitory action” (priority 2019, dated 2025) one finds IC50 data, which are given here for 13 compounds.

SMILES strings stand for the structures. Starred links: 1 amine or outer side, 2 acyl side, 3 side chain; linkers in the order of their positions; H or OH if unused. Positions of bridges follow the written chain, without caps; N, C: chain ends. Non-standard residues stand in square brackets, D forms with d. Residues, ends and D or L forms follow the SMILES beside them. *: point of attachment. hPhe(3,5-F2-4-CF3) = N[C@@H](CCc1cc(F)c(C(F)(F)F)c(F)c1)C(=O)O; hPhe(3-Cl-4-CF3) = N[C@@H](CCc1ccc(C(F)(F)F)c(Cl)c1)C(=O)O; NMeDab(N,N-(CH2CF2CH2)) = CN[C@@H](CCN1CC(F)(F)C1)C(=O)O; hPhe(3-F,4-CF3) = N[C@@H](CCc1ccc(C(F)(F)F)c(F)c1)C(=O)O; NMePhe(4-CF3) = CN[C@@H](Cc1ccc(C(F)(F)F)cc1)C(=O)O; NMePhe(4-CN) = CN[C@@H](Cc1ccc(C#N)cc1)C(=O)O; NMePhe(4-Cl) = CN[C@@H](Cc1ccc(Cl)cc1)C(=O)O; NMePhe(4-Me) = CN[C@@H](Cc1ccc(C)cc1)C(=O)O; NMePhe(4-F) = CN[C@@H](Cc1ccc(F)cc1)C(=O)O; NMeGly(cPent) = CN[C@H](C(=O)O)C1CCCC1; Phe(3-F) = N[C@@H](Cc1cccc(F)c1)C(=O)O; Phe(3-I) = N[C@@H](Cc1cccc(I)c1)C(=O)O; NMehPhe = CN[C@@H](CCc1ccccc1)C(=O)O; NMeCha = CN[C@@H](CC1CCCCC1)C(=O)O; X2 = C=CC[C@](C)(N[*:1])C(=O)[*:2]; NMeF = CN[C@@H](Cc1ccccc1)C(=O)O; NMeI = CC[C@H](C)[C@H](NC)C(=O)O; dNMeF = CN[C@H](Cc1ccccc1)C(=O)O; NMeD = CN[C@@H](CC(=O)O)C(=O)O; NMeL = CN[C@@H](CC(C)C)C(=O)O; NMeV = CN[C@H](C(=O)O)C(C)C; d(β3hA) = C[C@@H](N)CC(=O)O; NMeS = CN[C@@H](CO)C(=O)O; NMeA = CN[C@@H](C)C(=O)O; NMeAib = CNC(C)(C)C(=O)O; Nle = CCCC[C@H](N)C(=O)O; Piperidide = C1CCN(*)CC1; Pyrrolidide = C1CCN(*)C1; Ac5c = NC1(C(=O)O)CCCC1; Aze = O=C(O)[C@@H]1CCN1; Sar = CNCC(=O)O; Propyl = CCC*

For this test, the target named is T1, Kras and SOS1 (biotin-tagged human Kras loaded with GDP, His-tagged human SOS1) (Homo sapiens, UniProt P01116, G12D).
T1 construct: made in house; host or cells: E. coli (stated for Kras only)
T1 sequence (P01116 1-188 isoform P01116-2 G12D): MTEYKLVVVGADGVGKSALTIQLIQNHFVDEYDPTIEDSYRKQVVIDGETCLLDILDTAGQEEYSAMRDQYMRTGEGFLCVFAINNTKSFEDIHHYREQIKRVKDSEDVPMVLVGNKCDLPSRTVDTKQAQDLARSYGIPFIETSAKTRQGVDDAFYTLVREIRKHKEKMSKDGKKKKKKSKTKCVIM
Put plainly: Protein-protein interaction inhibition between Kras and SOS1 (KrasGl2D-SOS PPI) using AlphaScreen. The class given is binding. Conditions: AlphaScreen; biotin-tagged human Kras loaded with GDP, His-tagged human SOS1; read-out: KRAS G12D-SOS PPI IC50. The essentials: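 Read-out is acceptor-bead light at 520-620 nm, arising when 680 nm-irradiated nickel donor beads pass singlet oxygen to streptavidin acceptors. The bead pair links His-tagged SOS1 with biotin-tagged, GDP-bound Kras from E. coli.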
Consider `CC[C@H](C)[C@@H]1NC(=O)[C@H](CC(C)C)N(C)C(=O)C[C@@H](C(=O)N2CCCCC2)N(C)C(=O)[C@H](C(C)C)N(C)C(=O)C2(CCCC2)NC(=O)[C@@H]2CCCN2C(=O)[C@H](CCc2ccc(C(F)(F)F)c(Cl)c2)NC(=O)CN(C)C(=O)[C@H](CC2CCCCC2)N(C)C(=O)[C@@H]2CCN2C(=O)[C@H](CCc2ccccc2)N(C)C1=O` [Compound 1624] ([NMeL]I[NMehPhe][Aze][NMeCha][Sar][hPhe(3-Cl-4-CF3)]P[Ac5c][NMeV][NMeD]-Piperidide; lactam N-11), for which the IC50 was found to be 92 nM.
To `CC[C@H](C)[C@@H]1NC(=O)[C@H](C)N(C)C(=O)C[C@@H](C)NC(=O)[C@H](C(C)C)N(C)C(=O)[C@H](Cc2ccccc2)N(C)C(=O)[C@H](CC(C)C)N(C)C(=O)[C@H](CCc2ccc(C(F)(F)F)c(F)c2)NC(=O)CN(C)C(=O)[C@H](Cc2ccc(Cl)cc2)N(C)C(=O)[C@@H]2CCN2C(=O)CN(C)C1=O` [Compound 782] (cyclo([Aze][NMePhe(4-Cl)][Sar][hPhe(3-F,4-CF3)][NMeL][NMeF][NMeV][d(β3hA)][NMeA]I[Sar])) belongs 21 nM; to `CC[C@H](C)[C@@H]1NC(=O)[C@H](C)N(C)C(=O)C[C@@H](C(=O)N(C)C)N(C)C(=O)[C@H]([C@@H](C)CC)N(C)C(=O)C2(CCCC2)NC(=O)[C@H](Cc2ccc(F)cc2)N(C)C(=O)[C@H](CCc2cc(F)c(C(F)(F)F)c(F)c2)NC(=O)CN(C)C(=O)[C@H](Cc2ccc(C(F)(F)F)cc2)N(C)C(=O)[C@@H]2CCN2C(=O)[C@H](C)N(C)C1=O` [Compound 1986] ([NMeA]I[NMeA][Aze][NMePhe(4-CF3)][Sar][hPhe(3,5-F2-4-CF3)][NMePhe(4-F)][Ac5c][NMeI][NMeD]-NMe2; lactam N-11), 11 nM; to `CC[C@H](C)[C@@H]1NC(=O)[C@H](C)N(C)C(=O)C[C@@H](C(=O)N2CCCCC2)N(C)C(=O)[C@H](C(C)C)N(C)C(=O)[C@H](COC)NC(=O)[C@H](CCN2CC(F)(F)C2)N(C)C(=O)[C@H](CCc2ccc(C(F)(F)F)c(Cl)c2)NC(=O)CN(C)C(=O)[C@H](CC2CCCCC2)N(C)C(=O)CN(C)C(=O)CN(C)C1=O` [Compound 655] ([NMeA]I[Sar][Sar][NMeCha][Sar][hPhe(3-Cl-4-CF3)][NMeDab(N,N-(CH2CF2CH2))]S(Me)[NMeV][NMeD]-Piperidide; lactam N-11), 4.9 nM.
To `CC[C@H](C)[C@@H]1NC(=O)[C@H](CC(C)C)N(C)C(=O)C[C@@H](C(=O)N(C)C)N(C)C(=O)[C@H]([C@@H](C)CC)N(C)C(=O)C2(CCCC2)NC(=O)[C@H](Cc2ccc(C#N)cc2)N(C)C(=O)[C@H](CCc2ccc(C(F)(F)F)c(Cl)c2)NC(=O)CN(C)C(=O)[C@H](Cc2ccc(C)cc2)N(C)C(=O)[C@@H]2CCN2C(=O)[C@H](C)N(C)C1=O` [Compound 1927] ([NMeL]I[NMeA][Aze][NMePhe(4-Me)][Sar][hPhe(3-Cl-4-CF3)][NMePhe(4-CN)][Ac5c][NMeI][NMeD]-NMe2; lactam N-11) belongs 3.3 nM; to `CCCOC[C@H]1C(=O)N(C)CC(=O)N[C@@H](CCc2ccc(C(F)(F)F)c(F)c2)C(=O)N2CCC[C@H]2C(=O)NC2(CCCC2)C(=O)N(C)[C@@H](C2CCCC2)C(=O)N(C)[C@H](C(=O)N2CCCC2)CC(=O)N(C)[C@@H](CC(C)C)C(=O)N[C@@H]([C@@H](C)CC)C(=O)N(C)[C@@H](C)C(=O)N2CC[C@H]2C(=O)N1C` [Compound 987] ([NMeL]I[NMeA][Aze][NMeS](Propyl)[Sar][hPhe(3-F,4-CF3)]P[Ac5c][NMeGly(cPent)][NMeD]-Pyrrolidide; lactam N-11), 0.96 nM; to `CC[C@H](C)[C@@H]1NC(=O)[C@H](CC(C)C)N(C)C(=O)C[C@@H](C(=O)N(C)C)N(C)C(=O)[C@H](C2CCCC2)N(C)C(=O)[C@H](C)NC(=O)[C@@H](C)NC(=O)[C@H](CCc2ccc(C(F)(F)F)c(Cl)c2)NC(=O)CN(C)C(=O)[C@H](CC2CCCCC2)N(C)C(=O)[C@@H]2CCN2C(=O)[C@H](C)N(C)C1=O` [Compound 736] ([NMeL]I[NMeA][Aze][NMeCha][Sar][hPhe(3-Cl-4-CF3)][dA]A[NMeGly(cPent)][NMeD]-NMe2; lactam N-11), 37 nM.
To `CC[C@H](C)[C@@H]1NC(=O)[C@H](C)N(C)C(=O)C[C@@H](C(=O)N2CCCCC2)N(C)C(=O)[C@H]([C@@H](C)CC)N(C)C(=O)C2(CCCC2)NC(=O)[C@@H](Cc2ccccc2)N(C)C(=O)[C@H](CCc2cc(F)c(C(F)(F)F)c(F)c2)NC(=O)CN(C)C(=O)[C@H](Cc2ccc(C(F)(F)F)cc2)N(C)C(=O)[C@@H]2CCN2C(=O)[C@H](C)N(C)C1=O` [Compound 1992] ([NMeA]I[NMeA][Aze][NMePhe(4-CF3)][Sar][hPhe(3,5-F2-4-CF3)][dNMeF][Ac5c][NMeI][NMeD]-Piperidide; lactam N-11) belongs 280 nM; to `CC[C@H](C)[C@@H]1NC(=O)[C@H](CC(C)C)N(C)C(=O)C[C@@H](C(=O)N(C)C)N(C)C(=O)[C@H]([C@@H](C)CC)N(C)C(=O)C2(CCCC2)NC(=O)[C@H](Cc2ccc(F)cc2)N(C)C(=O)[C@H](CCc2cc(F)c(C(F)(F)F)c(F)c2)NC(=O)CN(C)C(=O)[C@H](Cc2ccc(C)cc2)N(C)C(=O)[C@@H]2CCN2C(=O)[C@H](C)N(C)C1=O` [Compound 1952] ([NMeL]I[NMeA][Aze][NMePhe(4-Me)][Sar][hPhe(3,5-F2-4-CF3)][NMePhe(4-F)][Ac5c][NMeI][NMeD]-NMe2; lactam N-11), 8.1 nM.
For `CC[C@H](C)[C@@H]1NC(=O)[C@H](C)N(C)C(=O)C[C@@H](C(=O)N2CCCC2)NC(=O)[C@H](C(C)C)N(C)C(=O)[C@H](Cc2ccccc2)N(C)C(=O)[C@H](Cc2ccccc2)NC(=O)[C@H](Cc2cccc(F)c2)NC(=O)CN(C)C(=O)[C@H](Cc2ccc(Cl)cc2)N(C)C(=O)CN(C)C(=O)CN(C)C1=O` [Compound 184] ([NMeA]I[Sar][Sar][NMePhe(4-Cl)][Sar][Phe(3-F)]F[NMeF][NMeV]D-Pyrrolidide; lactam N-11), the half-maximal inhibitory concentration (IC50) came to 320 nM.
Regarding `CCCC[C@@H]1NC(=O)[C@H](Cc2cccc(I)c2)NC(=O)CN(C)C(=O)[C@H](Cc2ccc(Cl)cc2)N(C)C(=O)CN(C)C(=O)CN(C)C(=O)[C@H]([C@@H](C)CC)NC(=O)[C@H](CC(C)C)N(C)C(=O)C[C@@H](C(=O)N2CCCCC2)N(C)C(=O)[C@H](CC(C)C)NC(=O)[C@H](Cc2ccc(C)cc2)N(C)C1=O` [Compound 876] ([NMeL]I[Sar][Sar][NMePhe(4-Cl)][Sar][Phe(3-I)][Nle][NMePhe(4-Me)]L[NMeD]-Piperidide; lactam N-11), the half-inhibitory concentration (IC50) is 18 nM.
Turning to `C=CC[C@]1(C)NC(=O)[C@@H]2CCCN2C(=O)[C@H](CCc2ccc(C(F)(F)F)c(Cl)c2)NC(=O)CN(C)C(=O)[C@H](CC2CCCCC2)N(C)C(=O)CN(C)C(=O)CN(C)C(=O)[C@H]([C@@H](C)CC)NC(=O)[C@H](CC(C)C)N(C)C(=O)C[C@@H](C)NC(=O)[C@H](C(C)C)N(C)C1=O` [Compound 242] (cyclo(I[Sar][Sar][NMeCha][Sar][hPhe(3-Cl-4-CF3)]P[X2][NMeV][d(β3hA)][NMeL])), the IC50 turned out to be 27 nM.
For the compound `CC[C@H](C)[C@@H]1NC(=O)[C@H](CC(C)C)N(C)C(=O)C[C@@H](C(=O)N2CCCC2)NC(=O)[C@H](CC(C)C)NC(=O)C(C)(C)N(C)C(=O)[C@H](CC(C)C)NC(=O)[C@H](CCc2ccc(C(F)(F)F)c(F)c2)NC(=O)CN(C)C(=O)[C@H](Cc2ccc(Cl)cc2)N(C)C(=O)CN(C)C(=O)CN(C)C1=O` [Compound 96] ([NMeL]I[Sar][Sar][NMePhe(4-Cl)][Sar][hPhe(3-F,4-CF3)]L[NMeAib]LD-Pyrrolidide; lactam N-11), the concentration for half-maximal inhibition (IC50) worked out at 220 nM.
